Data set [1] is described as follows: Cytotoxicity in human HepG2.215 cells assessed as reduction in cell viability after 5 days by CCK8 assay. In kind it is cell-based, HepG2 2.2.15. The following applies: HepG2.2.15 cells. In general terms: Tetrazolium assays rely on reduction of a dye to a coloured formazan, in cell work by metabolically active cells.
Data set [2] deals with Core antigen (Hepatitis B virus) (UniProt Q03732). Put plainly: Inhibition of hepatitis B virus capsid assembly infected in human HepG2.215 cells assessed as reduction in viral DNA replication measured on day 7 by real time PCR analysis. Format: cell-based.
Core antigen (Hepatitis B virus), sequence (Q03732 as listed by the source): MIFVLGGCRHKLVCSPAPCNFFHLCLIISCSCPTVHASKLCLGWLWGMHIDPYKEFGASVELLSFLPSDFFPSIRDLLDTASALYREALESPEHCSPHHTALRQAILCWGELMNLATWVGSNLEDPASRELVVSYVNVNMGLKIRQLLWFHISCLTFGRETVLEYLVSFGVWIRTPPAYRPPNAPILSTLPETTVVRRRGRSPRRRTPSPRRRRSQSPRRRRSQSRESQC

A word on the CC50: it is the concentration at which the toxic effect on the cells reaches its halfway point. Regarding `Nc1ncnc2c1ncn2CCOCP(=O)(O)O` [ADEFOVIR], in data set [1], the CC50 at 120 h came out at 200 µM.

A word on the EC90: it is the point of the concentration-response curve where the effect stands at 90%. Take `COC(=O)C1=C(C)NC(c2nccs2)=N[C@H]1c1ccc(F)cc1Cl`: the EC90 in data set [2] stood at 0.3 µM. Further, the CC50 at 120 h in data set [1] was greater than 45 µM.

These data come from ChEMBL document CHEMBL4177524, “Discovery of hepatitis B virus capsid assembly inhibitors leading to a heteroaryldihydropyrimidine based clinical candidate (GLS4)” (Bioorg Med Chem, 2017).
